Results from patent US10350213B2 (AI Therapeutics, Inc., priority 2015, dated 2019).
Read-outs that look alike come from different tables or passages of the source.

Tests used:
Format in all cases: cell-based
[1] = system: A172 (Human neuroblastoma); experiment: CellTiterGlo cell viability assay; conditions: A 172
Procedure: (§1) Briefly, test compounds (5 μl stock solution, 6×desired final well concentration) were dispensed to 384-well assay plates, TSC2−/− MEF cells (1000 cells per well in 25 μL of media) were added to the plates and the plates were incubated for 72 h (3 days) at 37° C. under an atmosphere of 5% CO2 in a humidified incubator for 3 days. Cell viability was determined with CellTiter-Glo® luminescence assay (Promega) per the manufacturer's instructions. Viability was expressed as a percentage of untreated control cells.
(§2) 35 cell lines were identified as sensitive to apilimod-induced cytotoxicity in this assay. The apilimod-sensitive cells included cells derived from several different cancers including non-Hodgkin's lymphoma, Hodgkin's lymphoma, colorectal cancer, and lung cancer. The most sensitive of those tested were non-Hodgkin's Lymphoma (NHL) cell lines. […] The only NHL subtype not sensitive in this assay was follicular.

[2] = system: CAMA1 (Human breast cancer); experiment: CellTiterGlo cell viability assay; conditions: CAMA-1
Procedure: as §1, §2

[3] = system: COLO-205 (Human Colorectal); experiment: CellTiterGlo cell viability assay
Procedure: as §1, §2

[4] = system: DB (Human B-cell lymphoma); experiment: CellTiterGlo cell viability assay; conditions: Human DLBCL-GCB
Procedure: as §1, §2

[5] = system: DLD-1 (Human colorectal cancer); experiment: CellTiterGlo cell viability assay
Procedure: as §1, §2

[6] = system: DOHH-2 (Human Follicular B Cell Lymphoma-GCB); experiment: CellTiterGlo cell viability assay; conditions: Human Follicular Lymphoma - DLBCL-GCB
Procedure: as §1, §2

[7] = system: Daudi (Human Burkitt's lymphoma); experiment: CellTiterGlo cell viability assay
Procedure: as §1, §2

[8] = system: EB1 (Human Burkitt's lymphoma); experiment: CellTiterGlo cell viability assay
Procedure: as §1, §2

[9] = system: GRANTA-519 (Human Mantle Cell Lymphoma); experiment: CellTiterGlo cell viability assay
Procedure: as §1, §2

[10] = system: H1734 (Human lung carcinoma); experiment: CellTiterGlo cell viability assay; conditions: NCI-H1734
Procedure: as §1, §2

[11] = system: H460 (Human lung carcinoma); experiment: CellTiterGlo cell viability assay; conditions: NCI-H460
Procedure: as §1, §2

[12] = system: HDLM-2 (Human Hodgkin's lymphoma); experiment: CellTiterGlo cell viability assay
Procedure: as §1, §2

[13] = system: HT (Human Diffuse Large B Cell Lymphoma -GCB); experiment: CellTiterGlo cell viability assay; conditions: Human DLBCL-GCB
Procedure: as §1, §2

HT-29 (Human Colorectal) = experiment: CellTiterGlo cell viability assay
Procedure: as §1, §2

[14] = system: JeKo-1 (Human Mantle Cell Lymphoma); experiment: CellTiterGlo cell viability assay
Procedure: as §1, §2

[15] = system: KARPAS-422 (Human Diffuse Large B Cell Lymphoma -GCB); experiment: CellTiterGlo cell viability assay; conditions: Human DLBCL-GCB
Procedure: as §1, §2

[16] = system: KMH-2 (Human Hodgkin's lymphoma); experiment: CellTiterGlo cell viability assay; conditions: KM-H2
Procedure: as §1, §2

LOVO (Human Colorectal) = experiment: CellTiterGlo cell viability assay
Procedure: as §1, §2

[17] = system: MDST8 (Human colorectal cancer); experiment: CellTiterGlo cell viability assay
Procedure: as §1, §2

[18] = system: MOLT-4 (Human T-cell leukemia); experiment: CellTiterGlo cell viability assay
Procedure: as §1, §2

[19] = system: NCI-H1650 (Human bronchioalveolar); experiment: CellTiterGlo cell viability assay
Procedure: as §1, §2

[20] = system: Namalwa (Human Burkitt's lymphoma); experiment: CellTiterGlo cell viability assay
Procedure: as §1, §2

[21] = system: OCI-Ly19 (Human Diffuse Large B Cell Lymphoma -GCB); experiment: CellTiterGlo cell viability assay; conditions: Human DLBCL-GCB
Procedure: as §1, §2

[22] = system: RKO (Human colorectal cancer); experiment: CellTiterGlo cell viability assay
Procedure: as §1, §2

[23] = system: ST486 (Human Burkitt's lymphoma); experiment: CellTiterGlo cell viability assay
Procedure: as §1, §2

[24] = system: SUDHL-10 (Human Diffuse Large B Cell Lymphoma -GCB); experiment: CellTiterGlo cell viability assay; conditions: SU-DHL10, Human DLBCL-GCB
Procedure: as §1, §2

[25] = system: SW1573 (Human bronchioalveolar); experiment: CellTiterGlo cell viability assay
Procedure: as §1, §2

SW480 (Human Colorectal) = experiment: CellTiterGlo cell viability assay
Procedure: as §1, §2

[26] = system: Toledo (Human Diffuse Large B Cell Lymphoma -GCB); experiment: CellTiterGlo cell viability assay; conditions: Human DLBCL-GCB
Procedure: as §1, §2

[27] = system: U-118 MG (Human neuroblastoma); experiment: CellTiterGlo cell viability assay
Procedure: as §1, §2

[28] = system: U937 (Human histiocytic lymphoma); experiment: CellTiterGlo cell viability assay; conditions: U-937
Procedure: as §1, §2

[29] = system: Jurkat (Human T-cell leukemia); experiment: CellTiterGlo cell viability assay
[30] = system: PANC1 (Human pancreatic cancer); experiment: CellTiterGlo cell viability assay; conditions: PANC-1
[31] = system: K562 (Human myelogenous leukemia); experiment: CellTiterGlo cell viability assay
[32] = system: M0591K (Human neuroblastoma); experiment: CellTiterGlo cell viability assay
[33] = system: U-87 MG (Human neuroblastoma); experiment: CellTiterGlo cell viability assay
[34] = system: 122 human cancer cell lines representing 24 tumor types; experiment: 3-day CellTiterGlo assay, cancer cell line panel; conditions: of 122 human cancer cell lines; sensitive if IC50 less than 500 nM; 3-day assay
From the text: as §2

NHL cell lines = experiment: 7 day cell viability assay, NHL cell lines; conditions: 7 day assay; for IC50: 168 h
From the text: This is exemplified in FIG. 2A for the HCT116 colorectal carcinoma cells. […] And all NHL subtypes were sensitive in this assay, including mantle, follicular, Burkitt's, DLBCL-ABC, DLBCL-GCB, and double-hit DLBCL.

[35] = Homo sapiens, 72 h, 3-day CellTiterGlo assay

## Cc1cccc(/C=N/Nc2cc(N3CCOCC3)nc(OCCc3ccccn3)n2)c1 [apilimod]
[1]
  IC50: 2000 nM
[2]
  IC50: > 10000 nM
[3]
  IC50: 380 nM
[4]
  IC50: 150 nM
[5]
  IC50: > 5000 nM
[6]
  IC50: 700 nM
[7]
  IC50: 200 nM
[8]
  IC50: 174 nM
[9]
  IC50: > 10000 nM
[10]
  IC50: 1500 nM
[11]
  IC50: > 2000 nM
[12]
  IC50: > 1000 nM
[13]
  IC50: 642 nM
HT-29 (Human Colorectal)
  IC50: > 10000 nM
[14]; [35]
  IC50: < 100 nM
[14]; Human Mantle Cell Lymphoma
  IC50: 70 nM
[15]
  IC50: > 10000 nM
[16]
  IC50: 181 nM
LOVO (Human Colorectal)
  IC50: > 10000 nM
[17]
  IC50: 1000 nM
[18]
  IC50: 3300 nM
[19]
  IC50: > 20000 nM
[20]
  IC50: 600 nM
[21]
  IC50: 380 nM
[22]
  IC50: > 5000 nM
[23]; [35]
  IC50: < 100 nM
[23]; Human Burkitt's lymphoma
  IC50: 25 nM
[24]
  IC50: 20 nM
[25]
  IC50: > 20000 nM
SW480 (Human Colorectal)
  IC50: 90 nM
[26]
  IC50: 270 nM
[27]
  IC50: > 10000 nM
[28]
  IC50: 106 nM
[29]
  IC50: 200 nM
[30]
  IC50: > 2000 nM
[31]
  IC50: > 5000 nM
[32]
  IC50: > 10000 nM
[33]
  IC50: > 10000 nM
[34]
  number of cell lines sensitive to apilimod-induced cytotoxicity: 35
NHL cell lines; 32 NHL cell lines tested
  share of NHL cell lines sensitive to apilimod: 72%
NHL cell lines; different NHL subtypes, read-out: IC50
  IC50: < 125 nM
NHL cell lines; sensitive NHL cell lines, read-out: average IC50
  IC50: 69 nM
